{"source": "patent US20110086017A1", "about": "“Medical Food composition and methods for management of inflammatory processes in mammals” (priority 2009, published 2011)", "origin": "cited, not measured here", "test_system": "plasma exudate at the site of inflammation", "details": "animal study; by decreasing bradykinin and pre-kallikrein levels", "data": [{"substance": "Bromelain", "values": [{"measurement": "plasma exudate at the site of inflammation", "result": "dose-dependently reduced plasma exudate"}]}]}
